Measured values from ChEMBL document CHEMBL5370616, “Novel Nitric Oxide Donor-Azole Conjugation Strategy for Efficient Treatment of Cryptococcus neoformans Infections” (J Med Chem, 2023).
Converted amounts (≈) assume the structure as drawn. The source made the active and inactive calls. No cut-off for these calls is given here.

How the values were obtained:
Candida albicans [1] = test: Antifungal activity against Candida albicans SC5314 assessed as reduction in fungal growth incubated for 48 hrs by CLSI protocol based microplate reader analysis; format: functional
Nakaseomyces glabratus = test: Antifungal activity against Candida glabrata 10639 assessed as reduction in fungal growth incubated for 48 hrs by CLSI protocol based microplate reader analysis; format: functional
Cryptococcus neoformans [2] = test: Antifungal activity against Cryptococcus neoformans H99 assessed as reduction in fungal growth incubated for 72 hrs by CLSI protocol based microplate reader analysis; format: functional
Candida albicans [3] = test: Antifungal activity against Candida albicans 0304103 assessed as reduction in fungal growth incubated for 48 hrs by CLSI protocol based microplate reader analysis; format: functional
Cryptococcus neoformans [4] = test: Antifungal activity against Cryptococcus neoformans H99 assessed as reduction in fungal growth at 4 ug/ml incubated upto 72 hrs by microplate reader analysis; format: functional, organism-based; details: dose 4.0 µg/ml
Cryptococcus neoformans [5] = test: Antifungal activity against Cryptococcus neoformans H99 assessed as change in internal microstructure by observing cell membrane damage at 4 ug/ml incubated for 8 hrs by TEM analysis; format: functional, organism-based; details: dose 4.0 µg/ml
Cryptococcus neoformans [6] = test: Inhibition of CYP51 in Cryptococcus neoformans H99 assessed as increase in other unknown sterol level at 4 ug/ml incubated for 24 hrs by GC-MS analysis (Rvb= 12.49%); details: dose 4.0 µg/ml
Cryptococcus neoformans [7] = test: Antifungal activity against Cryptococcus neoformans H99 assessed as reduction in number of colonies at 0.125 to 1 ug/ml incubated for 72 hrs by agar disk diffusion assay; format: functional; details: dose 0.125-1 µg/ml
Cryptococcus neoformans [8] = test: Inhibition of CYP51 in Cryptococcus neoformans H99 assessed as reduction in ergosterol level at 4 ug/ml incubated for 24 hrs by GC-MS analysis (Rvb= 58.33%); details: dose 4.0 µg/ml
Cryptococcus neoformans [9] = test: Inhibition of CYP51 in Cryptococcus neoformans H99 assessed as increase in lanosterol level at 4 ug/ml incubated for 24 hrs by GC-MS analysis (Rvb= 6.24%); details: dose 4.0 µg/ml
Cryptococcus neoformans [10] = test: Antifungal activity against Cryptococcus neoformans H99 assessed as change in internal microstructure by observing sparse capsule at 4 ug/ml incubated for 8 hrs by TEM analysis; format: functional, organism-based; details: dose 4.0 µg/ml
Cryptococcus neoformans [11] = test: Inhibition of CYP51 in Cryptococcus neoformans H99 assessed as decrease in unknown sterol level at 4 ug/ml incubated for 24 hrs by GC-MS analysis (Rvb= 22.95%); details: dose 4.0 µg/ml
Cryptococcus neoformans [12] = test: Disruption of preformed mature biofilm in Cryptococcus neoformans H99 assessed as removal of mature biofilm at 0.125 to 32 ug/ml incubated for 24 hrs by XTT reduction assay; format: functional, organism-based; details: dose 0.125-32 µg/ml
Cryptococcus neoformans [13] = test: Antifungal activity against Cryptococcus neoformans H99 assessed as reduction in fungal growth at 0.25 to 8 ug/ml incubated upto 72 hrs by microplate reader analysis; format: functional, organism-based; details: dose 0.25-8 µg/ml
Cryptococcus neoformans [14] = test: Inhibition of biofilm formation in Cryptococcus neoformans H99 at 0.25 ug/ml incubated for 24 hrs by XTT reduction assay; format: functional
Cryptococcus neoformans [15] = test: Fungicidal activity against Cryptococcus neoformans H99 assessed as reduction in colony forming units at 8 ug/ml incubated upto 72 hrs by time-kill assay; format: functional; set-up: scale not given: the % may be the effect or the level left; details: dose 8 µg/ml
Cryptococcus neoformans [16] = test: Inhibition of CYP51 in Cryptococcus neoformans H99 assessed as increase in other unknown sterol level at 0.125 ug/ml incubated for 24 hrs by GC-MS analysis (Rvb= 12.49%); details: dose 0.125 µg/ml
Cryptococcus neoformans [17] = test: Disruption of preformed mature biofilm in Cryptococcus neoformans H99 assessed as removal of mature biofilm at 0.125 ug/ml incubated for 24 hrs by XTT reduction assay; format: functional; set-up: scale not given: the % may be the effect or the level left; details: dose 0.125 µg/ml
Cryptococcus neoformans [18] = test: Antifungal activity against Cryptococcus neoformans H99 assessed as reduction in melanin production at 32 ug/ml by microplate analysis; format: functional, organism-based; details: dose 32.0 µg/ml
[19] = Drug metabolism in Cryptococcus neoformans H99 assessed as NO release by measuring green fluorescence at 8 ug/ml incubated for 12 hrs by DAF-FM DA staining based confocal laser scanning microscopy; format: ADME; details: dose 8 µg/ml
Cryptococcus neoformans [20] = test: Fungicidal activity against Cryptococcus neoformans H99 assessed as cell death by measuring red fluorescence at 8 ug/ml incubated for 12 hrs by PI staining based confocal laser scanning microscopy; format: functional, organism-based; details: dose 8.0 µg/ml
Cryptococcus neoformans [21] = test: Disruption of preformed mature biofilm in Cryptococcus neoformans H99 assessed as removal of mature biofilm at 0.125 to 32 ug/ml incubated for 24 hrs in presence of 2-phenyl-4,4,5,5-tetramethylimidazoline-l-oxyl 3-oxide by XTT reduction assay; format: functional, organism-based; details: dose 0.125-32 µg/ml
Cryptococcus neoformans [22] = test: Inhibition of CYP51 in Cryptococcus neoformans H99 assessed as reduction in ergosterol level at 0.125 ug/ml incubated for 24 hrs by GC-MS analysis (Rvb= 58.33%); details: dose 0.125 µg/ml
Cryptococcus neoformans [23] = test: Disruption of preformed mature biofilm in Cryptococcus neoformans H99 assessed as removal of mature biofilm at 32 ug/ml incubated for 24 hrs by XTT reduction assay; format: functional; set-up: scale not given: the % may be the effect or the level left; details: dose 32 µg/ml
Cryptococcus neoformans [24] = test: Inhibition of CYP51 in Cryptococcus neoformans H99 assessed as increase in lanosterol level at 0.125 ug/ml incubated for 24 hrs by GC-MS analysis (Rvb= 6.24%); details: dose 0.125 µg/ml
Cryptococcus neoformans [25] = test: Inhibition of CYP51 in Cryptococcus neoformans H99 assessed as decrease in unknown sterol level at 0.125 ug/ml incubated for 24 hrs by GC-MS analysis (Rvb= 22.95%); details: dose 0.125 µg/ml
Cryptococcus neoformans [26] = test: Antifungal activity against Cryptococcus neoformans H99 assessed as reduction in urease production at 8 ug/ml by microplate analysis; format: functional, organism-based; details: dose 8.0 µg/ml
Cryptococcus neoformans [27] = test: Fungicidal activity against Cryptococcus neoformans H99 assessed as reduction in colony forming units at 4 to 8 ug/ml incubated upto 72 hrs by time-kill assay; format: functional, organism-based; details: dose 4-8 µg/ml

CN(Cc1ccc(OCCCOc2ccc(CC(=O)OCCCCO[N+](=O)[O-])cc2)cc1)CC(O)(Cn1cncn1)c1ccc(F)cc1F (configuration not stated)
MIC80 (Candida albicans [1]): 2 µg/mL (≈ 2.93 µM)
MIC80 (Nakaseomyces glabratus): 0.5 µg/mL (≈ 0.731 µM)
MIC80 (Cryptococcus neoformans [2]): 0.5 µg/mL (≈ 0.731 µM)
MIC80 (Candida albicans [3]): > 64 µg/mL

CN(CC(O)(Cn1cncn1)c1ccc(F)cc1F)c1cc(O/N=[N+](\[O-])N2CCC(O)CC2)c([N+](=O)[O-])cc1[N+](=O)[O-] (configuration not stated)
MIC80 (Candida albicans [1]): > 64 µg/mL
MIC80 (Nakaseomyces glabratus): > 64 µg/mL
MIC80 (Cryptococcus neoformans [2]): 64 µg/mL (≈ 108 µM)
MIC80 (Candida albicans [3]): > 64 µg/mL

CN(Cc1ccc(CNCCCOc2no[n+]([O-])c2S(=O)(=O)c2ccccc2)cc1)CC(O)(Cn1cncn1)c1ccc(F)cc1F (configuration not stated)
MIC80 (Candida albicans [1]): 16 µg/mL (≈ 23.9 µM)
MIC80 (Nakaseomyces glabratus): 8 µg/mL (≈ 11.9 µM)
MIC80 (Cryptococcus neoformans [2]): 2 µg/mL (≈ 2.99 µM)
MIC80 (Candida albicans [3]): 32 µg/mL (≈ 47.8 µM)

OC(Cn1cncn1)(Cn1cncn1)c1ccc(F)cc1F [FLUCONAZOLE]
Activity (Cryptococcus neoformans [4]): inactive
MIC80 (Candida albicans [1]): 0.5 µg/mL (≈ 1.63 µM)
Activity (Cryptococcus neoformans [5]): Active
inhibition (Cryptococcus neoformans [6]): 21.4%
Activity (Cryptococcus neoformans [7]): inactive
inhibition (Cryptococcus neoformans [8]): 19.2%
inhibition (Cryptococcus neoformans [9]): 53.9%
Activity (Cryptococcus neoformans [10]): inactive
inhibition (Cryptococcus neoformans [11]): 5.55%
Activity (Cryptococcus neoformans [12]): inactive
MIC80 (Nakaseomyces glabratus): 2 µg/mL (≈ 6.53 µM)
MIC80 (Cryptococcus neoformans [2]): 2 µg/mL (≈ 6.53 µM)
MIC80 (Candida albicans [3]): > 64 µg/mL

CN(Cc1ccc(CNCCOc2no[n+]([O-])c2S(=O)(=O)c2ccccc2)cc1)CC(O)(Cn1cncn1)c1ccc(F)cc1F (configuration not stated)
MIC80 (Candida albicans [1]): 64 µg/mL (≈ 97.6 µM)
MIC80 (Nakaseomyces glabratus): 8 µg/mL (≈ 12.2 µM)
MIC80 (Cryptococcus neoformans [2]): 2 µg/mL (≈ 3.05 µM)
MIC80 (Candida albicans [3]): 64 µg/mL (≈ 97.6 µM)

CN(Cc1ccc(OCCCOc2ccc(CC(=O)OCc3ccccc3CO[N+](=O)[O-])cc2)cc1)CC(O)(Cn1cncn1)c1ccc(F)cc1F (configuration not stated)
MIC80 (Candida albicans [1]): 1 µg/mL (≈ 1.37 µM)
MIC80 (Nakaseomyces glabratus): 1 µg/mL (≈ 1.37 µM)
MIC80 (Cryptococcus neoformans [2]): 0.25 µg/mL (≈ 0.342 µM)
MIC80 (Candida albicans [3]): > 64 µg/mL

CN(Cc1ccc(OCCCOc2ccc(CC(=O)OCC#CCOc3no[n+]([O-])c3S(=O)(=O)c3ccccc3)cc2)cc1)CC(O)(Cn1cncn1)c1ccc(F)cc1F (configuration not stated)
MIC80 (Candida albicans [1]): 16 µg/mL (≈ 18.6 µM)
MIC80 (Nakaseomyces glabratus): 2 µg/mL (≈ 2.33 µM)
MIC80 (Cryptococcus neoformans [2]): 2 µg/mL (≈ 2.33 µM)
MIC80 (Candida albicans [3]): > 64 µg/mL

CN(Cc1ccc(OCCCOc2ccc(CC(=O)OCCCO[N+](=O)[O-])cc2)cc1)CC(O)(Cn1cncn1)c1ccc(F)cc1F (configuration not stated)
MIC80 (Candida albicans [1]): 1 µg/mL (≈ 1.49 µM)
Activity (Cryptococcus neoformans [13]): Dose-Dependent Effect
MIC80 (Nakaseomyces glabratus): 1 µg/mL (≈ 1.49 µM)
MIC80 (Cryptococcus neoformans [2]): 0.125 µg/mL (≈ 0.187 µM)
MIC80 (Candida albicans [3]): > 64 µg/mL
inhibition at 0.25 µg/mL (Cryptococcus neoformans [14]): > 50%

CN(Cc1ccc(CNCCCCCOc2no[n+]([O-])c2S(=O)(=O)c2ccccc2)cc1)CC(O)(Cn1cncn1)c1ccc(F)cc1F (configuration not stated)
MIC80 (Candida albicans [1]): 8 µg/mL (≈ 11.5 µM)
MIC80 (Nakaseomyces glabratus): 8 µg/mL (≈ 11.5 µM)
MIC80 (Cryptococcus neoformans [2]): 2 µg/mL (≈ 2.87 µM)
MIC80 (Candida albicans [3]): > 64 µg/mL

CN(CC(O)(Cn1cncn1)c1ccc(F)cc1F)c1cc(O/N=[N+](\[O-])N(C)CCO)c([N+](=O)[O-])cc1[N+](=O)[O-] (configuration not stated)
MIC80 (Candida albicans [1]): > 64 µg/mL
MIC80 (Nakaseomyces glabratus): > 64 µg/mL
MIC80 (Cryptococcus neoformans [2]): 64 µg/mL (≈ 113 µM)
MIC80 (Candida albicans [3]): > 64 µg/mL

CN(Cc1ccc(OCCCOc2ccc(CC(=O)OCc3ccc(CO[N+](=O)[O-])cc3)cc2)cc1)CC(O)(Cn1cncn1)c1ccc(F)cc1F (configuration not stated)
Activity (Cryptococcus neoformans [15]): 100%
inhibition (Cryptococcus neoformans [16]): 33.6%
Activity (Cryptococcus neoformans [17]): 25%
MIC80 (Candida albicans [1]): 1 µg/mL (≈ 1.37 µM)
Activity (Cryptococcus neoformans [18]): Active
Activity (Cryptococcus neoformans [7]; at 0.125 to 1 µg/mL): 100%
Drug metabolism [19]: Metabolite_Detected
Activity (Cryptococcus neoformans [20]): Active
Activity (Cryptococcus neoformans [21]): inactive
inhibition (Cryptococcus neoformans [22]): 10.7%
Activity (Cryptococcus neoformans [13]): Dose-Dependent Effect
Activity (Cryptococcus neoformans [23]): 50%
inhibition (Cryptococcus neoformans [24]): 50.9%
inhibition (Cryptococcus neoformans [25]): 4.75%
MIC80 (Nakaseomyces glabratus): 1 µg/mL (≈ 1.37 µM)
MIC80 (Cryptococcus neoformans [2]): 0.5 µg/mL (≈ 0.683 µM)
Activity (Cryptococcus neoformans [26]): Active
MIC80 (Candida albicans [3]): 32 µg/mL (≈ 43.7 µM)
inhibition at 0.25 µg/mL (Cryptococcus neoformans [14]): > 50%

CN(Cc1ccc(OCCCOc2ccc(CC(=O)O)cc2)cc1)CC(O)(Cn1cncn1)c1ccc(F)cc1F (configuration not stated)
Activity (Cryptococcus neoformans [27]): inactive
MIC80 (Cryptococcus neoformans [2]): 2 µg/mL (≈ 3.53 µM)
